Data set [1] is described as follows: Syneresis of agar-based media (Blood, Chocolate, MacConkey, Azide blood agar) after storage. The data set is classed as physicochemical. The settings on record: 0.2% iota carrageenan plus 1 mM calcium chloride; each of four agars; 28 days at 5° C. The procedure:
In a first example, the ability of iota carrageenan to stabilize agar-based media was assessed. The media chosen for this example were used in several of the embodiments of the agar-based media of the invention listed in this application. More specifically, in this example, Blood agar, Chocolate agar, MacConkey agar, and Azide blood agar were each prepared three different ways: (1) without any additions, to serve as a control, (2) with the addition of 0.2% (final concentration) Iota Carrageenan, and (3) with the addition of 0.2% Iota Carrageenan plus 1 mM Calcium chloride. These additions were made at time of hydration as described above, and prior to autoclaving. Following the sterilization step (autoclaving), the processes of preparing blood agar, chocolate agar and azide blood agar from the base media were performed using standard microbiology methods. Defibrinated sterile sheep red blood cells and sodium azide were two of the reagents used. The complete MacConkey medium was prepared using all three ways prior to autoclaving. Each of the twelve different media were dispensed at 50° C. into four polystyrene sterile T-flasks (25 cm^2) with tight-fitting screw caps and stored for 28 days at refrigerator temperature(5° C.), at which point the amount of water of syneresis was measured. […]

Data set [2] in a line: Syneresis of Mueller-Hinton agar at various iota carrageenan concentrations with and without calcium. The data set is classed as physicochemical. The settings on record: 1 mM calcium added; media with 0.4%, 0.6% and 0.8% iota carrageenan. The procedure: In a second example, research was conducted to determine the ability of iota carrageenan to stabilize agar gels at a variety of concentrations of carrageenan with and without calcium. The results of this research are summarized in the tables of FIG. 41A entitled: “The Effect of Iota Carrageenan, Without Added Calcium, on Syneresis of Mueller-Hinton Agar,” and in FIG. 42A, entitled: “The Effect of Iota Carrageenan, with 1 mM added Calcium, on Syneresis of Mueller-Hinton Agar. The graphs associated with the above two figures found in FIG. 41B and 42B pictorially illustrate the syneresis-reducing-effect of iota carrageenan and the synergistic effects of adding calcium with certain concentrations of iota carrageenan

Consider `[Ca+2].[Cl-].[Cl-]` [calcium, Calcium chloride], for which the “amount of water of syneresis, effect of adding calcium to carrageenan media” value in data set [1] is listed as “further reduced the amount of syneresis”. The “syneresis of Mueller-Hinton agar, effect of adding calcium” value in data set [2] is listed as “effect of adding calcium is also apparent”.

The values above are taken from US7018828B1, “Microbial culture medium containing agar and iota carrageenan” (priority 2001, dated 2006).
